Data: patent US11224224B2, “Thiobenzoimidazole as fungicides” (REDAG CROP PROTECTION LTD, priority 2017, dated 2022)
In brackets after ≈: the same amount, converted by molar mass.

Legend:
Type in all cases: cell-based
oomycete plant pathogens = assay: Fungicidal activity testing, overall summary; details: summary statement on Table 1
Description: The activity of compounds of the invention was assessed by testing against certain oomycete plant pathogens and representative data are presented in Table 1.

Phytophthora cactorum = assay: 96 well plate test (amended agar with spores); details: 96 well plate, 20, 2, 0.2 and 0.02 ppm, 1% PDA, 2 to 3 days (cells marked *), read-out: EC50 Phytophthora spp. (*96 well plate format vs. Phytophthora cactorum)
Description: Compounds were screened in 96 well plates with 10 compounds per plate. Each compound was screened using agar amended to 20, 2, 0.2 and 0.02 ppm, with Proline at 50 and 10 ppm and 0.2% DMSO used as controls. Each test concentration and standard was replicated twice on a plate. Compounds were screened against Phytophthora cactorum. The agar used in the test is a 1% PDA. 1000 spores/mL agar were added to the appropriate agar.
A ×10 stock solution in 2% DMSO was produced for each dose i.e. 200, 20, 2 and 0.2 ppm, and 10 μl of this added to the appropriate wells on the plate. An equivalent amount of 2% DMSO and Proline stock at 500 and 100 ppm were added for the controls. To each well 90 μl of the appropriate agar spore suspension was added to give the required final well concentrations. Plates were incubated at room temperature (18° C.) and assessed after 2 to 3 days. The amount of pathogen growth in each well was compared to the DMSO controls and an EC50 concentration was calculated. The results are provided in Table 1 in which G represents an EC50 above 20 ppm, F represents an EC50 of 1-20 ppm and E represents an EC50 less than 1 ppm.

Pythium ultimum [1] = assay: Amended agar assay (PDA), colony growth; details: Globisporangium ultimum; read-out: % control Pythium ultimum 2 ppm
Phytophthora cinnamomi = assay: Amended agar assay (PDA), colony growth; details: Phytophthora cinnamomi; 20 ppm in amended PDA, 18° C., reduction in colony growth vs control plate; read-out: % control Phytophthora spp. 20 ppm
Description: (§1) Testing was carried out on potato dextrose agar (PDA) amended with each compound at a test concentration of 20 ppm. Amended agar was poured into three replicate 9 cm petri dishes. Each replicate dish was inoculated in the centre with a 5 mm agar plug taken from the leading edge of a culture aged between 2 and 7 days old; the age of the culture was dependant on the growth rate of the pathogen being tested. The test pathogens were Pythium ultimum and Phytophthora cinnamomi. Plates were incubated at 18° C. and the diameter of each colony measured before growth on the fastest growing plate reached the plate edge. This varied between 2 and 7 days depending on the growth rate of test pathogens. The % reduction in colony growth compared to the control plate was calculated for each pathogen. The results are provided in Table 1, in which D represents no control detected at this concentration; C represents up to 50% control; B from 50 to 99% control; and A represents a control of greater than 99%, i.e. no detectable colony growth.
(§2) Alternatively, or in addition, the same assay was conducted at descending test concentrations with 5-fold dilutions typically down to 0.032 ppm though sometimes as low as 0.00026 ppm, and an EC50 (the concentration at which 50% control would be achieved) was determined. The results are provided in Table 1 in which G represents an EC50 above 20 ppm, F represents an EC50 of 1-20 ppm and E represents and EC50 less than 1 ppm.

Pythium ultimum [2] = assay: Amended agar assay (PDA), colony growth; details: Globisporangium ultimum; 20 ppm in amended PDA, 18° C., reduction in colony growth vs control plate
Description: as §1, §2

Which results are given for Cc1ccc(CSc2nc3ccccc3n2-c2nnnn2C)nc1 [Example 69]?
control over the pathogens tested (oomycete plant pathogens): good to excellent control; EC50 (Phytophthora cactorum): 1 to 20 µg/mL (≈ 2.96 to 59.3 µM); inhibition of growth at 2 ppm (Pythium ultimum [1]): > 99%

What does the source list for Cn1nnnc1-n1c(SCc2cccc(NC(=O)OC(C)(C)C)n2)nc2cccc(Cl)c21 [Example 83]?
control over the pathogens tested (oomycete plant pathogens): good to excellent control; EC50 (Phytophthora cactorum): 1 to 20 µg/mL (≈ 2.11 to 42.3 µM); inhibition of growth at 2 ppm (Pythium ultimum [1]): 50 to 99%

With Cn1nnnc1-n1c(SCc2cccc(NCc3ccccc3)n2)nc2ccccc21 [Example 88, N-Benzyl-6-(((1-(1-methyl-1H-tetrazol-5-yl)-1H-benzo[d]imidazol-2-yl)thio)methyl)pyridin-2-amine] as the molecule, how does the “control over the pathogens tested” value (oomycete plant pathogens) read?
The value was “good to excellent control”.

What about the EC50 (Phytophthora cactorum) of the same molecule?
The EC50 was less than 1 µg/mL.

And the inhibition of growth at 2 ppm (Pythium ultimum [1])?
The inhibition of growth at 2 ppm was greater than 99%.

What does the source list for COc1cc(F)cc2c1nc(SCc1cccc(NC(=O)OC(C)(C)C)n1)n2-c1nnnn1C [Example 84]?
control over the pathogens tested (oomycete plant pathogens): good to excellent control; EC50 (Phytophthora cactorum): 1 to 20 µg/mL (≈ 2.06 to 41.1 µM); inhibition of growth at 2 ppm (Pythium ultimum [1]): > 99%

How did the “control over the pathogens tested” value (oomycete plant pathogens) turn out when COc1ccnc(CSc2nc3ccccc3n2-c2nnnn2C)c1 [Example 42] was run?
The value was “good to excellent control”.

What about the EC50 (Phytophthora cactorum) of the same molecule?
Its EC50 is 1 to 20 µg/mL (≈ 2.83 to 56.6 µM).

And the inhibition of growth at 2 ppm (Pythium ultimum [1])?
Its inhibition of growth at 2 ppm is greater than 99%.

Cn1nnnc1-n1c(SCc2ccccn2)nc2cc(Cl)ccc21 [Example 67] was tested. Which “control over the pathogens tested” value (oomycete plant pathogens) did it give?
The value was “good to excellent control”.

And the EC50 (Phytophthora cactorum)?
The EC50 was 1 to 20 µg/mL (≈ 2.79 to 55.9 µM).

And the inhibition of growth at 2 ppm (Pythium ultimum [1])?
Its inhibition of growth at 2 ppm is greater than 99%.

What does the source list for Clc1cncnc1-n1c(SCc2ccccn2)nc2ccccc21 [Example 59, 1-(5-Chloropyrimidin-4-yl)-2-((pyridin-2-ylmethyl)thio)-1H-benzo[d]imidazole]?
inhibition of growth at 20 ppm (Phytophthora cinnamomi): > 99%; control over the pathogens tested (oomycete plant pathogens): good to excellent control; EC50 (Phytophthora cactorum): 1 to 20 µg/mL (≈ 2.83 to 56.5 µM); inhibition of growth at 20 ppm (Pythium ultimum [2]): > 99%; inhibition of growth at 2 ppm (Pythium ultimum [1]): > 99%

Which results are given for Cn1nnnc1-n1c(SCc2nccs2)nc2ccc(F)cc21 [Example 48]?
control over the pathogens tested (oomycete plant pathogens): good to excellent control; EC50 (Phytophthora cactorum): 1 to 20 µg/mL (≈ 2.88 to 57.6 µM); inhibition of growth at 2 ppm (Pythium ultimum [1]): > 99%

With COc1ccnc(CSc2nc3cc(Cl)ccc3n2-c2nnnn2C)c1 [Example 66] as the molecule, how does the “control over the pathogens tested” value (oomycete plant pathogens) read?
Its value is “good to excellent control”.

What about the EC50 (Phytophthora cactorum) of the same molecule?
Its EC50 is 1 to 20 µg/mL (≈ 2.58 to 51.6 µM).

And the inhibition of growth at 2 ppm (Pythium ultimum [1])?
The inhibition of growth at 2 ppm was greater than 99%.

Which results are given for Cc1ccnc(CSc2nc3ccccc3n2-c2nnnn2C)c1 [Example 37]?
control over the pathogens tested (oomycete plant pathogens): good to excellent control; EC50 (Phytophthora cactorum): 1 to 20 µg/mL (≈ 2.96 to 59.3 µM); inhibition of growth at 20 ppm (Pythium ultimum [2]): > 99%; inhibition of growth at 2 ppm (Pythium ultimum [1]): 50 to 99%

COCCCOc1ccnc(CSc2nc3ccccc3n2-c2nnnn2C)c1C [Example 40] was tested. Which “control over the pathogens tested” value (oomycete plant pathogens) did it give?
Its value is “good to excellent control”.

And the EC50 (Phytophthora cactorum)?
Its EC50 is 1 to 20 µg/mL (≈ 2.35 to 47 µM).

And the inhibition of growth at 2 ppm (Pythium ultimum [1])?
Its inhibition of growth at 2 ppm is 50 to 99%.

COc1ccnc(CSc2nc3ccccc3n2-c2nnnn2C)c1OC [Example 39] was tested. Which “control over the pathogens tested” value (oomycete plant pathogens) did it give?
Its value is “good to excellent control”.

And the EC50 (Phytophthora cactorum)?
Its EC50 is 1 to 20 µg/mL (≈ 2.61 to 52.2 µM).

What about the inhibition of growth at 2 ppm (Pythium ultimum [1]) of the same molecule?
Its inhibition of growth at 2 ppm is greater than 99%.

Which “control over the pathogens tested” value (oomycete plant pathogens) does the source give for Cn1nnnc1-n1c(SCc2cc(C#N)ccn2)nc2ccccc21 [Example 70] here?
The value was “good to excellent control”.

And the EC50 (Phytophthora cactorum)?
The EC50 was 1 to 20 µg/mL (≈ 2.87 to 57.4 µM).

And the inhibition of growth at 2 ppm (Pythium ultimum [1])?
The inhibition of growth at 2 ppm was greater than 99%.

How did the “control over the pathogens tested” value (oomycete plant pathogens) turn out when Cn1nnnc1-n1c(SCc2nccs2)nc2ccccc21 [Example 34] was run?
The value was “good to excellent control”.

What about the EC50 (Phytophthora cactorum) of the same molecule?
The EC50 was 1 to 20 µg/mL (≈ 3.04 to 60.7 µM).

What about the inhibition of growth at 20 ppm (Pythium ultimum [2]) of the same molecule?
Its inhibition of growth at 20 ppm is greater than 99%.

What about the inhibition of growth at 2 ppm (Pythium ultimum [1]) of the same molecule?
The inhibition of growth at 2 ppm was 50 to 99%.

Which “control over the pathogens tested” value (oomycete plant pathogens) does the source give for Cn1nnnc1-n1c(SCc2cccc(NC(=O)C3CC3)n2)nc2c(Cl)cccc21 [Example 63, N-(6-(((4-Chloro-1-(1-methyl-1H-tetrazol-5-yl)-1H-benzo[d]imidazol-2-yl)thio)methyl)pyridin-2-yl)cyclopropanecarboxamide] here?
Its value is “good to excellent control”.

What about the EC50 (Phytophthora cactorum) of the same molecule?
Its EC50 is 1 to 20 µg/mL (≈ 2.27 to 45.4 µM).

What about the inhibition of growth at 2 ppm (Pythium ultimum [1]) of the same molecule?
The inhibition of growth at 2 ppm was greater than 99%.

How did the “control over the pathogens tested” value (oomycete plant pathogens) turn out when COc1c(C)cnc(CSc2nc3ccccc3n2-c2nnnn2C)c1C [Example 38] was run?
Its value is “good to excellent control”.

What about the EC50 (Phytophthora cactorum) of the same molecule?
The EC50 was 1 to 20 µg/mL (≈ 2.62 to 52.4 µM).

What about the inhibition of growth at 2 ppm (Pythium ultimum [1]) of the same molecule?
The inhibition of growth at 2 ppm was greater than 99%.

Cn1nnnc1-n1c(SCc2ccc(Cl)cn2)nc2ccccc21 [Example 76] was tested. Which “control over the pathogens tested” value (oomycete plant pathogens) did it give?
Its value is “good to excellent control”.

And the EC50 (Phytophthora cactorum)?
The EC50 was 1 to 20 µg/mL (≈ 2.79 to 55.9 µM).

What about the inhibition of growth at 2 ppm (Pythium ultimum [1]) of the same molecule?
The inhibition of growth at 2 ppm was greater than 99%.

What does the source list for COc1ccc(CSc2nc3ccccc3n2-c2nnnn2C)nc1 [Example 73]?
control over the pathogens tested (oomycete plant pathogens): good to excellent control; EC50 (Phytophthora cactorum): 1 to 20 µg/mL (≈ 2.83 to 56.6 µM); inhibition of growth at 2 ppm (Pythium ultimum [1]): > 99%
